Measured values taken from patent publication US20250152577A1, “Pharmaceutical Composition of Ethidium Bromide and Use in Treating Cancer” (RUIJIN HOSPITAL, SHANGHAI JIAOTONG UNIVERSITY SCHOOL OF …, priority 2022, published 2025).

Test system: AOM+DSS-induced colorectal tumor
Assay: AOM+DSS-induced spontaneous colorectal cancer mouse model
Type: in vivo, mice
Conditions: zalcitabine 33 mg/Kg alone, one month
Experimental: The classical intraperitoneal injection of AOM and the spontaneous colorectal cancer formation by three rounds of DSS were utilized to construct a tumor mouse model. Mice were treated with ethidium bromide (500 mg/L dissolved in drinking water) one week after completion of the construction. […] Mice were sacrificed and their colorectum was taken for photographic observation and fixed staining.
To further verify the above results, we then expanded the sample size to about 10-16 mice per group and still used the above AOM+DSS protocol to induce spontaneous colorectal cancer formation in mice. […] Meanwhile, since it has been reported that zalcitabine (ddC) can effectively impair the function of mitochondria (mainly the replication of mtDNA, similar to ethidium bromide), we added the experimental group of zalcitabine (33 mg/Kg) as a control.
In addition, in order to investigate in what way ethidium bromide clears tumors in mice, we also tested cell proliferation (FIGS. 8A and B) and apoptosis (FIG. 8C-F) in tumor tissues and normal tissues surrounding the tumors in different treatment groups. Among them, cell proliferation was detected by immunohistochemistry of Ki67-positive cells, and apoptosis was detected by immunofluorescence staining of cleaved Caspase3.
To further verify whether ethidium bromide is still effective against already existing larger tumors (advanced colorectal cancer), we set aside a group of control mice (started administration 5 weeks after the end of induction, equivalent to the control group of mice described above) to administer them by gavage (20 mg/Kg per day).
We investigated the mechanism of ethidium bromide-induced apoptosis in tumor cells. First, tumor tissues treated with ethidium bromide (mice shown in FIGS. 7 and 8, treated for 4 weeks at 20 mg/Kg per day) were subjected to SDS-Loading buffer boiling lysis and tested for associated signaling pathways by Western blotting.

Which “effect on spontaneous colorectal tumors” value does the source give for `Nc1ccn([C@H]2CC[C@@H](CO)O2)c(=O)n1` [zalcitabine, reference compound] here?
Its value is “had no effect”.
